Assays:
KDM6A (UTX) = biological target: T1, KDM6A (UTX) (Homo sapiens, UniProt O15550); assay: KDM cell-free assay (AlphaScreen, BPS Bioscience); type: biochemical; conditions: for IC50: Fig. 9A, read-out: IC50 (KDM6A inhibition dose response curve)
T1 construct: purchased BPS Bioscience

MCF-7 = assay: Cell viability assay (MTS), antiproliferative activity; type: cell-based; conditions: Homo sapiens, MCF7, 72 h
Method: (§1) To preliminarily profile the bioactivity of these compounds, we adopted a streamlined approach which involved screening against KDM6A at two concentrations and evaluating antiproliferative activity against three representative cell lines – MCF-7 (ER(+) BCa), MDA-MB-231 (TNBC BCa) and Vero (a non-transformed cell line as control).
(§2) The In vitro proliferation assay was performed as reported previously[15],[16]. Detailed description of the protocol used is included in the Supplementary Information.
(§3) Cell Viability Assay. All cell lines were purchased form ATCC (Manassas, VA), and they were routinely cultured in different media recommended by the supplier. MCF-7 cells were cultured in non-phenol red DMEM (Corning, Manassas, VA) fortified with 10% charcoal treated fetal bovine serum (FBS; Atlanta Biologicals, GA) and 0.2 mM glutamine (Corning, Manassas, VA), whereas MDA-MB-231, DU-145, and Vero were cultured in DMEM with 10% FBS. […] After 24 h incubation in 37 °C under 5% CO2, cells were treated with serially diluted ligands with final DMSO concentration of 1% and incubated for additional 72 h. MTS (CellTiter 96 Aqueous One Solution Cell Proliferation Assays, Promega, Madison, WI) was added to each well 2.5 h prior to recording the absorbance at 490 nm.

MDA-MB-231 = assay: as above; type: cell-based; conditions: Homo sapiens, 72 h
Method: as §1, §2, §3

VERO = assay: as above; type: cell-based; conditions: Chlorocebus sabaeus, 72 h
Method: as §1, §2, §3

[1] = system: HP1-mediated heterochromatin gene repression in CiA:Oct4 embryonic stem cells; assay: HP1-recruitment assay dose curve (CiA:Oct4, with CIP-rapamycin), flow cytometry; type: cell-based, mouse; conditions: 48 h with CIP-rapamycin recruitment of HP1; for concentration reaching maximum inhibition of heterochromatin formation / gene repression: doses 250 nM–10 µM
Text: To elucidate the effect of DFP-based KDM inhibitors on chromatin dynamics, we profiled them in an intracellular assay which measures heterochromatin formation speed. The chromatin in vivo assay (CiA) leverages chemical induced proximity (CIP) to recruit heterochromatin protein 1 (HP1) to a modified Oct4 locus. This reporter system is composed of tandem arrays of Gal4 and zinc finger DNA binding domains in the promoter of one allele of Oct4, where the gene was replaced by a nuclear eGFP reporter. Protein fusions of Gal4-FKBP and FRB-HP1 allow for direct chemical recruitment of HP1 to the CiA:Oct4 reporter locus upon addition of the chemical inducer of proximity (CIP)-rapamycin. After CIP-rapamycin addition, HP1 is recruited to the reporter locus and brings histone methyltransferase enzymes to the chromatin reporter resulting in the repressive H3K9me3 mark being deposited (Fig. 10A). H3K9me3 deposition is the signature mark of heterochromatin and is coupled with gene silencing and loss of GFP expression (Fig. 10B)[33]. Others have shown that H3K4me3 marked nucleosomes impede H3K9 methyltransferase activity. Thus, we postulate that the active H3K4me3 mark must be removed by KDM enzymes as part of the transformation from euchromatin to heterochromatin. Inhibition of KDMs, specifically those targeting H3K4me3, would result in a decrease in H3K9me3 accumulation, which would be measured in our assay as an increase in GFP positive cells.
To determine the effect of DFP-based KDM inhibitors on HP1-mediated gene repression, we treated CiA:Oct4 embryonic stem (ES) cells with doses of representative compounds ranging from 10 µM–250 nM for 48 h with CIP-rapamycin recruitment of HP1 (Fig. 10C). […] The percentage of GFP(+) cells was determined by flow cytometry as indicated in representative histograms (Supplemental Fig. S8).
(§4) Day 0, CiA:Oct4 N118/163 cells were grown in ES media and seeded at a density of 10,000 cells per well in 100 μL media (100,000 cells mL^−1) on gelatin coated 96 well plates. Day 1, culture media was aspirated and replaced with 100 µL ES media containing +/− 6 nM rapamycin. 10 µM, 5 µM, 2.5 µM, 1 µM, 500 nM, and 250 nM concentrations of compound or DMSO were added using a TTP Labtech Mosquito HTS liquid handler. Days 2, fresh ES media +/− rapamycin and compound were added as in Day 1. Day 3, cells were washed with PBS and trypsinized using 0.25% trypsin-EDTA. Trypsin was quenched with serum. Cells were resuspended by pipetting in preparation for flow cytometry analysis.
(§5) Flow cytometry data was acquired using the Intellicyt iQue Screener and analyzed with FlowJo software.
The CiA:Oct4 recruitment system in mouse embryonic stem cells contains Gal4 and Zinc finger DNA binding arrays and a downstream nuclear eGFP gene in place of a single Oct4 allele as previously described.^30 The CiA:Oct4 N118/N163 cell line containing viral integrations of N118 and N163 plasmids (N118- nLV EF-1α-Gal-FKBPx1-HA-PGK-Blast, N163- nLV EF-1α-HP1α (CS)-Frbx2(Frb+FrbWobb)-V5-PGK-Puro) was used for inhibition of HP1-mediated heterochromatin studies. All plasmids are freely available on addgene.
(§6) HP1-Recruitment Assay Dose Curve. Day 0, CiA:Oct4 N118/163 cells were grown in ES media and seeded at a density of 10,000 cells per well in 100 µL media (100,000 cells mL^-1) on gelatin coated 96 well plates. Day 1, culture media was aspirated and replaced with 100 µL ES media containing +/- 6 nM rapamycin. 10 µM, 5 µM, 2.5 µM, 1 µM, 500 nM, and 250 nM concentrations of compound or DMSO were added using a TTP Labtech Mosquito HTS liquid handler. Days 2, fresh ES media +/- rapamycin and compound were added as in Day 1. Day 3, cells were washed with PBS and trypsinized using 0.25% trypsin-EDTA. Trypsin was quenched with serum. Cells were resuspended by pipetting in preparation for flow cytometry analysis.
Flow Cytometry and Analysis.

[2] = system: Oct4 GFP expression in CiA:Oct4 embryonic stem cells; assay: CiA:Oct4 reporter dose response without HP1 recruitment (no CIP-rapamycin), flow cytometry; type: cell-based, mouse; conditions: 48 h without HP1 recruitment; for decrease in the percentage of GFP(+) cells: at 2.5 µM
Text: Embryonic stem cells are sensitive to environmental stimuli which may trigger cell differentiation. During mammalian stem cell differentiation or exposure to toxic compounds, Oct4 is known to be repressed as cells lose reinforcement of the pluripotency transcriptional activation network[35],[36]. Therefore, the CiA:Oct4 reporter without CIP-recruitment of HP1 functions is a valid system to determine how much cell differentiation or toxicity is occurring by measuring the GFP expression levels. To elucidate the effect of DFP-based KDM inhibitors on Oct4 GFP expression in the absence of HP1 recruitment, we performed dose response studies without addition of CIP-rapamycin (Fig. 11A).
as §4, §5, §6
Flow Cytometry and Analysis. Flow cytometry data was acquired using the Intellicyt iQue Screener and analyzed with FlowJo software. Cell populations were gated based on forward and side scatter height. Single cell populations were gated using forward scatter area by forward scatter height. Autofluorescent cells were excluded and the remaining cells were gated into GFP (-) and GFP (+) populations based on DMSO control samples.

T47D cells = assay: Viability of T47D cells at three concentrations; type: cell-based, human; conditions: Fig. S9
Method: To determine the antitumor potential of the DFP-based KDM inhibitors, we investigated the efficacy of a representative example, 2j, in two murine xenograft models of BCa. The xenografts were established using two human BCa cell lines – T47D (ER(+)) and MDA-MB-231 (ER(−)). […] Because our in vitro study was conducted using MCF-7 as a model of ER(+) cell, we first tested the effect of 2j on the viability of T47D cells at three concentrations. […] The effect of 2j on T47D viability mirrored that of its effect on MCF-7, confirming preferential cytotoxicity of the DFP-based agents […]. Once we established that T47D cells are sensitive to 2j, xenografts of T47D and MDA-MB-231 were established in female athymic nude mice (8-week old) by injection of cells (1 × 10^7) into the mammary fat pad as described previously[37],[38]. After the tumor volume reached ~250 mm^3, mice were treated with 2j (25 mg/kg body weight) for 8 weeks. […] Relative to control, 2j caused approx. 81% (4426 vs 884 mm^3) and 70% (5116 vs 1536 mm^3) reduction in the growth of T47D and MDA-MBMB-231 tumors, respectively.

MDA-MB-231 tumors = assay: Mouse xenograft assay, MDA-MB-231 (ER(−)); type: in vivo; conditions: MDA-MB-231 xenograft
[3] = Table 5, values calculated by linear regression

T1 sequence (O15550 whole entry): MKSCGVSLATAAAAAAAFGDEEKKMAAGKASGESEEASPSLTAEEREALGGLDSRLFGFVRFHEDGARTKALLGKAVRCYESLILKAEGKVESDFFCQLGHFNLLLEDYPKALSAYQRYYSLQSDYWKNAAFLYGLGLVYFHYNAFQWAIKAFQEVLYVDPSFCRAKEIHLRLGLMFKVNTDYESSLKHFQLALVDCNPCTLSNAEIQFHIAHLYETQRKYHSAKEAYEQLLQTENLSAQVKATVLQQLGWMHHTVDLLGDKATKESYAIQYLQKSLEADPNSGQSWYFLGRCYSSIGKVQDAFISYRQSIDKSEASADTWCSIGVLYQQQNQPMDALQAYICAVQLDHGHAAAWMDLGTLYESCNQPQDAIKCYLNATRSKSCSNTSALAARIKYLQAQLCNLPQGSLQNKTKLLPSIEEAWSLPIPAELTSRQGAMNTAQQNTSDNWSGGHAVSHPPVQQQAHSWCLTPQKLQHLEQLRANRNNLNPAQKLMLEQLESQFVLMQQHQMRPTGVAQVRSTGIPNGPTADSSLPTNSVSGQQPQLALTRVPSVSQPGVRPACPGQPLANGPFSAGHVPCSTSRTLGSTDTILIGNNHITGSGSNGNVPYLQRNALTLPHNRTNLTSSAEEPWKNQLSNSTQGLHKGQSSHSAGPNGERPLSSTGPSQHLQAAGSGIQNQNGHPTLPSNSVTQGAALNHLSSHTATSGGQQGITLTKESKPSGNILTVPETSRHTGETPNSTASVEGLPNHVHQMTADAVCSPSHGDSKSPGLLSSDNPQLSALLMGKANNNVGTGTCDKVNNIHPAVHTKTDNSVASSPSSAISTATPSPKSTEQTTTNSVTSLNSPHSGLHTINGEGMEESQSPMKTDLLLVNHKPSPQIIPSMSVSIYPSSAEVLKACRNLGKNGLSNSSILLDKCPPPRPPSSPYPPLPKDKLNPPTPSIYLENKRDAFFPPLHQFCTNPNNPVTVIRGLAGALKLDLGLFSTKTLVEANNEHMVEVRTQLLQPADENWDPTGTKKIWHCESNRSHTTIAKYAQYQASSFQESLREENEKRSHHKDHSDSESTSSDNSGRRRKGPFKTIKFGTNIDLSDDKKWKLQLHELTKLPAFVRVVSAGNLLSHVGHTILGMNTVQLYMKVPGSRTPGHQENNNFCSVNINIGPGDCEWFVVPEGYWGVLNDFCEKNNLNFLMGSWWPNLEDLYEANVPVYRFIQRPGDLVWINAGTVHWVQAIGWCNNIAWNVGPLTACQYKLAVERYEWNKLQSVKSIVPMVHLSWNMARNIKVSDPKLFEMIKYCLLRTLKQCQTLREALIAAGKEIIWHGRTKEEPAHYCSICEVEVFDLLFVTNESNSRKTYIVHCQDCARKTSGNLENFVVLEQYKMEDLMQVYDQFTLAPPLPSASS

| Structure (SMILES) | inhibition at 1 µM (KDM6A (UTX); Table 3) [%] | inhibition at 10 µM (KDM6A (UTX); Table 3) [%] | IC50 (KDM6A (UTX)) [µM] | IC50 (MCF-7; Table 6, values calculated by linear regression) [µM] | IC50 (MDA-MB-231; Table 6) [µM] | inhibition at 1 µM (KDM6A (UTX); Table 2) [%] | inhibition at 10 µM (KDM6A (UTX); Table 2) [%] | IC50 (MCF-7; Table 5) [µM] | IC50 (MDA-MB-231; Table 5) [µM] | IC50 (MCF-7; [3]) [µM] | IC50 (VERO; Table 6) [µM] | concentration reaching maximum inhibition of heterochromatin formation / gene repression [1] [µM] | decrease in the percentage of GFP(+) cells [2] | IC50 (VERO; Table 5) [µM] | decrease in percentage GFP(+) cells ([2]; only at the 10 µM dose) | increase in the number of GFP positive cells [1] [%] | growth of T47D cells (T47D cells) | reduction in the growth of tumors relative to control (MDA-MB-231 tumors; athymic nude mice, 25 mg/kg body weight for 8 weeks) [%] | tumor volume (MDA-MB-231 tumors; 25 mg/kg for 8 weeks, control 5116 mm^3) [mm^3] |
| --- | --- | --- | --- | --- | --- | --- | --- | --- | --- | --- | --- | --- | --- | --- | --- | --- | --- | --- | --- |
| Cc1c(O)c(=O)ccn1C1CCC(CC2CCC(n3ccc(=O)c(O)c3C)CC2)CC1 (stereo not drawn) [3g] | 9 | 100 | 1.7 | 31.1 | 3.5 | – | – | – | – | – | > 50 | 2.5 | ~ 30% | – | – | – | – | – | – |
| COc1cccc(-c2cn(CCCCCn3ccc(=O)c(O)c3C)nn2)c1 [2j] | – | – | 3.2 | – | – | 8 | 100 | – | 10.6 | 34.1 | – | – | – | > 50 | – | 20 | dose-dependent reduction | ~70 | 1536 |

Now from value to compound, other results behind:

| inhibition at 1 µM (KDM6A (UTX); Table 3) [%] | inhibition at 10 µM (KDM6A (UTX); Table 3) [%] | IC50 (KDM6A (UTX)) [µM] | IC50 (MCF-7; Table 6, values calculated by linear regression) [µM] | IC50 (MDA-MB-231; Table 6) [µM] | inhibition at 1 µM (KDM6A (UTX); Table 2) [%] | inhibition at 10 µM (KDM6A (UTX); Table 2) [%] | IC50 (MCF-7; Table 5) [µM] | IC50 (MDA-MB-231; Table 5) [µM] | IC50 (MCF-7; [3]) [µM] | Structure (SMILES) | IC50 (VERO; Table 6) [µM] | concentration reaching maximum inhibition of heterochromatin formation / gene repression [1] [µM] | decrease in the percentage of GFP(+) cells [2] | IC50 (VERO; Table 5) [µM] | decrease in percentage GFP(+) cells ([2]; only at the 10 µM dose) | increase in the number of GFP positive cells [1] [%] | growth of T47D cells (T47D cells) | reduction in the growth of tumors relative to control (MDA-MB-231 tumors; athymic nude mice, 25 mg/kg body weight for 8 weeks) [%] | tumor volume (MDA-MB-231 tumors; 25 mg/kg for 8 weeks, control 5116 mm^3) [mm^3] |
| --- | --- | --- | --- | --- | --- | --- | --- | --- | --- | --- | --- | --- | --- | --- | --- | --- | --- | --- | --- |
| – | – | – | – | – | 12 | 49 | > 50 | 2.5 | – | Cc1c(O)c(=O)ccn1CCCCCCn1cc(-c2ccc(-c3ccccc3)cc2)nn1 [2v] | – | 1 | ~ 30% | 4.9 | – | – | – | – | – |
| – | – | – | – | – | 16 | 57 | > 50 | 1.2 | – | COc1ccc2cc(-c3cn(CCCCCCn4ccc(=O)c(O)c4C)nn3)ccc2c1 [2w] | – | 1 | ~ 30% | 3.9 | – | – | – | – | – |
| – | – | – | – | – | 8 | 99 | – | 3.6 | 37.6 | Cc1c(O)c(=O)ccn1CCCCCn1cc(-c2ccc(-c3ccncc3)cc2)nn1 [2t] | – | 10 | – | 29.2 | ~ 20% | – | – | – | – |
